The results in this text go back to ChEMBL document CHEMBL5346933, “Design and synthesis of novel arylurea derivatives of aryloxy(1-phenylpropyl) alicyclic diamines with antimicrobial activity against multidrug-resistant Gram-positive bacteria” (Eur J Med Chem, 2023).

In brackets after ≈: the same amount, converted by molar mass. Activity calls are given as the source filed them. The calls are words filed in the database; no cut-off is given here.

Data set [1] is described as follows: Cytotoxicity against human MRC5 cells assessed as reduction in cell viability incubated for 24 hrs by MTT assay. It is filed as toxicity, cell-based. On the technique in general: Tetrazolium assays rely on reduction of a dye to a coloured formazan, in cell work by metabolically active cells.
The test system of data set [2] is Staphylococcus aureus. In words: Antibacterial activity against vancomycin-intermediate Staphylococcus aureus ATCC 700699 assessed as inhibition of bacterial growth incubated for 18 hrs by broth microdilution method. It counts as functional. For orientation: Broth dilution looks for growth in wells or tubes with falling amounts of substance.
Data set [3] deals with Staphylococcus epidermidis. The data set can be described thus: Antibacterial activity against biofilm producer Staphylococcus epidermidis ATCC 35984 assessed as inhibition of bacterial growth incubated for 18 hrs by broth microdilution method. It is filed as functional.
For data set [4], the system named is Staphylococcus epidermidis. The data set can be described thus: Antibacterial activity against linezolid-resistant Staphylococcus epidermidis NIL 4399/19 assessed as inhibition of bacterial growth incubated for 18 hrs by broth microdilution method. It is filed as functional.
Data set [5] relates to Klebsiella pneumoniae. The data set can be described thus: Antibacterial activity against Klebsiella pneumoniae ATCC 700603 assessed as inhibition of bacterial growth incubated for 18 hrs by broth microdilution method. It counts as functional.
In data set [6] the test system is Streptococcus pneumoniae. The data set can be described thus: Antibacterial activity against Streptococcus pneumoniae ATCC 49619 assessed as inhibition of bacterial growth incubated for 18 hrs by broth microdilution method. It counts as functional.
The test system of data set [7] is Staphylococcus aureus. In words: Antibacterial activity against biofilm producer Staphylococcus aureus RN450 assessed as inhibition of bacterial growth incubated for 18 hrs by broth microdilution method. It counts as functional.
Data set [8] deals with Escherichia coli. The data set can be described thus: Antibacterial activity against Escherichia coli ATCC 25922 assessed as inhibition of bacterial growth incubated for 18 hrs by broth microdilution method. It counts as functional.
The subject of data set [9] is Staphylococcus aureus. The data set can be described thus: Antibacterial activity against methicillin-susceptible Staphylococcus aureus ATCC 25923 assessed as inhibition of bacterial growth incubated for 18 hrs by broth microdilution method. It counts as functional.
Data set [10] deals with Staphylococcus aureus. The data set can be described thus: Antibacterial activity against methicillin-resistant Staphylococcus aureus clinical strain 19449 assessed as inhibition of bacterial growth incubated for 18 hrs by broth microdilution method. It is filed as functional.
Data set [11] in a line: Induction of hemolysis in horse RBC at 200 uM incubated for 1 hr. It counts as toxicity, cell-based, Equus caballus, Erythrocyte. The note with it: horse red blood cells (erythrocytes), read-out: Activity.
Data set [12] relates to Pseudomonas aeruginosa. The data set can be described thus: Antibacterial activity against Pseudomonas aeruginosa ATCC 27853 assessed as inhibition of bacterial growth incubated for 18 hrs by broth microdilution method. It counts as functional.
The subject of data set [13] is Enterococcus faecium. In words: Antibacterial activity against vancomycin-resistant Enterococcus faecium assessed as inhibition of bacterial growth incubated for 18 hrs by broth microdilution method. It is filed as functional.
For data set [14], the system named is Staphylococcus epidermidis. The data set can be described thus: Antibacterial activity against methicillin-susceptible Staphylococcus epidermidis ATCC 12228 assessed as inhibition of bacterial growth incubated for 18 hrs by broth microdilution method. It is filed as functional.
Data set [15] has as its system Enterococcus faecalis. The data set can be described thus: Antibacterial activity against Enterococcus faecalis ATCC 29212 assessed as inhibition of bacterial growth incubated for 18 hrs by broth microdilution method. It is filed as functional.
A short description of data set [16]: Cytotoxicity against human BJ cells assessed as reduction in cell viability incubated for 24 hrs by MTT assay. It is filed as toxicity, cell-based.
The subject of data set [17] is Streptococcus pneumoniae. The data set can be described thus: Antibacterial activity against Oxacillin-resistant Streptococcus pneumoniae O/19/4541 assessed as inhibition of bacterial growth incubated for 18 hrs by broth microdilution method. It counts as functional.
Data set [18] concerns Streptococcus pneumoniae. In words: Antibacterial activity against macrolides-lincosamides and streptogramins B-resistant Streptococcus pneumoniae O/19/4199 assessed as inhibition of bacterial growth incubated for 18 hrs by broth microdilution method. It counts as functional.
Data set [19] deals with Staphylococcus aureus. The data set can be described thus: Antibacterial activity against Staphylococcus aureus Newman assessed as inhibition of bacterial growth incubated for 18 hrs by broth microdilution method. It counts as functional.

In general, IC50 refers to the point on the concentration scale where inhibition reaches its midpoint. As to `O=C(NCC1CCN(CCC(Oc2ccc(C(F)(F)F)cc2)c2ccccc2)CC1)Nc1cccc(Cl)c1` (racemic), the IC50 at 24 h in data set [1] and in data set [16] was 3.12 µg/mL (≈ 5.72 µM) each time. Also, the MIC in data set [2] was 6.25 µg/mL (≈ 11.4 µM); in data set [3], 1.56 µg/mL (≈ 2.86 µM); in [4], 3.12 µg/mL (≈ 5.72 µM); in [6] it was 12.5 µg/mL (≈ 22.9 µM); in data set [7], 1.56 µg/mL (≈ 2.86 µM); in [9], 3.12 µg/mL (≈ 5.72 µM). Moreover, the MIC in data set [10] was 3.12 µg/mL (≈ 5.72 µM); in [13] it was 0.78 µg/mL (≈ 1.43 µM); in [14] it was 1.56 µg/mL (≈ 2.86 µM); in [15], 3.12 µg/mL (≈ 5.72 µM). For the same compound, the outcome in data set [5], in [8] and in data set [12] was inactive. For the same compound, the hemolysis at 1 h, 200 µM in data set [11] turned out to be 5%.

Consider `O=C(NCC1CCN(CCC(Oc2ccc(Cl)cc2)c2ccccc2)CC1)Nc1cccc(Cl)c1` (racemic), for which the half-maximal inhibitory concentration (IC50) at 24 h is 3.12 µg/mL (≈ 6.1 µM) in data set [1] and 12.5 µg/mL (≈ 24.4 µM) in data set [16]. In addition, the MIC is 3.12 µg/mL (≈ 6.1 µM) in data set [2]; 3.12 µg/mL (≈ 6.1 µM) in [3]; 6.25 µg/mL (≈ 12.2 µM) in data set [4]; 6.25 µg/mL (≈ 12.2 µM) in data set [6]; 3.12 µg/mL (≈ 6.1 µM) in data set [7]; 6.25 µg/mL (≈ 12.2 µM) in data set [9]. For the same compound, the MIC was determined as 6.25 µg/mL (≈ 12.2 µM) in [10], 0.39 µg/mL (≈ 0.761 µM) in data set [13], 3.12 µg/mL (≈ 6.1 µM) in data set [14] and 3.12 µg/mL (≈ 6.1 µM) in data set [15]. Also, the result in data set [5], in [8] and in data set [12] was inactive. Also, the hemolysis at 1 h, 200 µM in data set [11] was found to be 6%.

In the case of `O=C(Nc1cccc(Cl)c1)NC1CCN(CCC(Oc2ccc(Cl)cc2)c2ccccc2)CC1` (racemic), the IC50 at 24 h in data set [1] was 6.25 µg/mL (≈ 12.5 µM); in [16], 12.5 µg/mL (≈ 25.1 µM). Further, the MIC in data set [2] was 3.12 µg/mL (≈ 6.27 µM); in data set [3], 1.56 µg/mL (≈ 3.13 µM); in data set [4], 3.12 µg/mL (≈ 6.27 µM); in data set [6], 6.25 µg/mL (≈ 12.5 µM); in data set [7], 1.56 µg/mL (≈ 3.13 µM); in data set [9] it was 3.12 µg/mL (≈ 6.27 µM). Further, the MIC in data set [10] is 3.12 µg/mL (≈ 6.27 µM); in [13], 1.56 µg/mL (≈ 3.13 µM); in data set [14], 3.12 µg/mL (≈ 6.27 µM); in data set [15] it was 3.12 µg/mL (≈ 6.27 µM). Moreover, the outcome in data set [5], in data set [8] and in data set [12] was inactive. In addition, the hemolysis at 1 h, 200 µM in data set [11] is less than 1%.

Take `COc1cccc2c1C(=O)c1c(O)c3c(c(O)c1C2=O)C[C@@](O)(C(=O)CO)C[C@@H]3O[C@H]1C[C@H](N)[C@H](O)[C@H](C)O1` [DOXORUBICIN]: the IC50 at 24 h is 0.39 µg/mL (≈ 0.718 µM) in data set [1] and 0.78 µg/mL (≈ 1.44 µM) in [16].

`CC(=O)NC[C@H]1CN(c2ccc(N3CCOCC3)c(F)c2)C(=O)O1` [LINEZOLID]: the MIC in [2] amounted to 1.56 µg/mL (≈ 4.62 µM); in [3], 1.56 µg/mL (≈ 4.62 µM); in data set [17], 1.56 µg/mL (≈ 4.62 µM); in data set [18], 1.56 µg/mL (≈ 4.62 µM); in data set [4] it was 250 µg/mL (≈ 741 µM); in [6] it was 0.78 µg/mL (≈ 2.31 µM). For the same compound, the MIC is 0.78 µg/mL (≈ 2.31 µM) in data set [7]; 3.12 µg/mL (≈ 9.26 µM) in data set [9]; 3.12 µg/mL (≈ 9.26 µM) in data set [10]; 0.78 µg/mL (≈ 2.31 µM) in data set [13]; 1.56 µg/mL (≈ 4.62 µM) in data set [14]; 1.56 µg/mL (≈ 4.62 µM) in data set [15]. For the same compound, in data set [19], the MIC was 1.56 µg/mL (≈ 4.62 µM).

Turning to `CN[C@H](CC(C)C)C(=O)N[C@H]1C(=O)N[C@@H](CC(N)=O)C(=O)N[C@H]2C(=O)N[C@H]3C(=O)N[C@H](C(=O)N[C@H](C(=O)O)c4cc(O)cc(O)c4-c4cc3ccc4O)[C@H](O)c3ccc(c(Cl)c3)Oc3cc2cc(c3O[C@@H]2O[C@H](CO)[C@@H](O)[C@H](O)[C@H]2O[C@H]2C[C@](C)(N)[C@H](O)[C@H](C)O2)Oc2ccc(cc2Cl)[C@H]1O` [VANCOMYCIN], the MIC came to 6.25 µg/mL (≈ 4.31 µM) in [2]; 0.78 µg/mL (≈ 0.538 µM) in data set [3]; 0.1 µg/mL (≈ 0.069 µM) in data set [17]; 0.39 µg/mL (≈ 0.269 µM) in [6]; 0.78 µg/mL (≈ 0.538 µM) in [9]; 0.78 µg/mL (≈ 0.538 µM) in data set [10]. In addition, the values for the MIC in [13], in data set [14] and in data set [15] were 50 µg/mL (≈ 34.5 µM), 0.78 µg/mL (≈ 0.538 µM) and 0.78 µg/mL (≈ 0.538 µM), respectively.
